In ChEMBL document CHEMBL3885861, “Open TG-GATES”:

Species on record: Rattus norvegicus
Experiment: Open TG-GATES - Regimen: Single
Assay type: toxicity, organism-based, Sprague-Dawley
Design: regimen Single, gender Male, age 6 weeks
Conditions: in vivo, po, route gavage; for APTT / Bas / Eos / Fbg / Hb / Ht / Lym / MCHC / MCV / Mono / Neu / PT / Plat / RBC / Ret / WBC: tissue Blood; for KIDNEY_L / KIDNEY_R / KIDNEY_TOTAL: tissue Kidney; for LIVER: tissue Liver; for ALP / ALT / AST / BUN / CRE / Ca / Cl / DBIL / GLC / IP / K / LDH / Na / PL / RALB / TBIL / TC / TG / TP / gamma-GTP: tissue Plasma
[1] = 100 mg/kg, 3 h, dose level Middle
[2] = 100 mg/kg, 6 h, dose level Middle
[3] = 100 mg/kg, 9 h, dose level Middle
[4] = 100 mg/kg, 24 h, dose level Middle
[5] = 300 mg/kg, 3 h, dose level High
[6] = 300 mg/kg, 6 h, dose level High
[7] = 300 mg/kg, 9 h, dose level High
[8] = 300 mg/kg, 24 h, dose level High

Question: Which results are given for `CS(=O)(=O)Nc1ccc([N+](=O)[O-])cc1Oc1ccccc1` [NIMESULIDE]?
Answer: TERMINAL_BW [1]: 203.6 g; APTT [1]: 16.7 s; Bas [1]: 0%; Eos [1]: 1.2%; Fbg [1]: 201.6 mg/dL; Hb [1]: 13.1 g/dL; Ht [1]: 38.3%; Lym [1]: 71.4%; MCHC [1]: 34.3%; MCV [1]: 65.8 fL; Mono [1]: 8.2%; Neu [1]: 19.2%; PT [1]: 12.2 s; Plat [1]: 110 x10_4/uL; RBC [1]: 582.2 x10_4/ul; Ret [1]: 11.3%; WBC [1]: 87.9 x10_2/uL; KIDNEY_L [1]: 0.9 g; KIDNEY_R [1]: 0.9 g; KIDNEY_TOTAL [1]: 1.8 g; LIVER [1]: 9.5 g; ALP [1]: 901.6 IU/L; ALT [1]: 36.2 IU/L; AST [1]: 66.6 IU/L; BUN [1]: 14 mg/dL; CRE [1]: 0.6 mg/dL; Ca [1]: 11 mg/dL; Cl [1]: 105.8 meq/L; DBIL [1]: 0.06 mg/dL; GLC [1]: 233.2 mg/dL; IP [1]: 9.6 mg/dL; K [1]: 5 meq/L; LDH [1]: 93.8 IU/L; Na [1]: 140.2 meq/L; PL [1]: 145.4 mg/dL; RALB [1]: 3.9 g/dL; TBIL [1]: 0.4 mg/dL; TC [1]: 85.2 mg/dL; TG [1]: 54.8 mg/dL; TP [1]: 5.2 g/dL; gamma-GTP [1]: 1 IU/L; TERMINAL_BW [2]: 202.6 g; APTT [2]: 18.2 s; Bas [2]: 0%; Eos [2]: 1%; Fbg [2]: 211.2 mg/dL; Hb [2]: 13.2 g/dL; Ht [2]: 39.2%; Lym [2]: 73.2%; MCHC [2]: 33.6%; MCV [2]: 65.7 fL; Mono [2]: 4.4%; Neu [2]: 21.8%; PT [2]: 12.4 s; Plat [2]: 119.2 x10_4/uL; RBC [2]: 596.6 x10_4/ul; Ret [2]: 9%; WBC [2]: 69.4 x10_2/uL; KIDNEY_L [2]: 0.9 g; KIDNEY_R [2]: 1 g; KIDNEY_TOTAL [2]: 1.9 g; LIVER [2]: 8.6 g; ALP [2]: 733.2 IU/L; ALT [2]: 36.4 IU/L; AST [2]: 67.2 IU/L; BUN [2]: 14.8 mg/dL; CRE [2]: 0.7 mg/dL; Ca [2]: 10.5 mg/dL; Cl [2]: 103.4 meq/L; DBIL [2]: 0.072 mg/dL; GLC [2]: 258 mg/dL; IP [2]: 10.4 mg/dL; K [2]: 4.3 meq/L; LDH [2]: 79.6 IU/L; Na [2]: 139.8 meq/L; PL [2]: 132.8 mg/dL; RALB [2]: 3.7 g/dL; TBIL [2]: 0.5 mg/dL; TC [2]: 79.8 mg/dL; TG [2]: 28 mg/dL; TP [2]: 5.3 g/dL; gamma-GTP [2]: 1.6 IU/L; TERMINAL_BW [3]: 194.5 g; APTT [3]: 19.5 s; Bas [3]: 0%; Eos [3]: 0.6%; Fbg [3]: 214.8 mg/dL; Hb [3]: 13.6 g/dL; Ht [3]: 40.6%; Lym [3]: 79.2%; MCHC [3]: 33.5%; MCV [3]: 65.2 fL; Mono [3]: 6%; Neu [3]: 14.4%; PT [3]: 12.5 s; Plat [3]: 117.1 x10_4/uL; RBC [3]: 621.8 x10_4/ul; Ret [3]: 11.2%; WBC [3]: 80.5 x10_2/uL; KIDNEY_L [3]: 0.9 g; KIDNEY_R [3]: 0.9 g; KIDNEY_TOTAL [3]: 1.8 g; LIVER [3]: 7.9 g; ALP [3]: 917.4 IU/L; ALT [3]: 32.8 IU/L; AST [3]: 62.4 IU/L; BUN [3]: 12.6 mg/dL; CRE [3]: 0.6 mg/dL; Ca [3]: 10.6 mg/dL; Cl [3]: 107.2 meq/L; DBIL [3]: 0.018 mg/dL; GLC [3]: 234 mg/dL; IP [3]: 9.5 mg/dL; K [3]: 5 meq/L; LDH [3]: 72 IU/L; Na [3]: 138.2 meq/L; PL [3]: 137.8 mg/dL; RALB [3]: 4 g/dL; TBIL [3]: 0.4 mg/dL; TC [3]: 77.8 mg/dL; TG [3]: 28.6 mg/dL; TP [3]: 5.4 g/dL; gamma-GTP [3]: 1 IU/L; TERMINAL_BW [4]: 205.9 g; APTT [4]: 17.2 s; Bas [4]: 0%; Eos [4]: 1%; Fbg [4]: 216.6 mg/dL; Hb [4]: 13.8 g/dL; Ht [4]: 40.7%; Lym [4]: 69%; MCHC [4]: 33.7%; MCV [4]: 64.1 fL; Mono [4]: 6.8%; Neu [4]: 23.4%; PT [4]: 12 s; Plat [4]: 116.2 x10_4/uL; RBC [4]: 636.2 x10_4/ul; Ret [4]: 10%; WBC [4]: 104.6 x10_2/uL; KIDNEY_L [4]: 0.9 g; KIDNEY_R [4]: 0.9 g; KIDNEY_TOTAL [4]: 1.9 g; LIVER [4]: 10.2 g; ALP [4]: 976.6 IU/L; ALT [4]: 37.2 IU/L; AST [4]: 66.8 IU/L; BUN [4]: 20.8 mg/dL; CRE [4]: 0.6 mg/dL; Ca [4]: 10.7 mg/dL; Cl [4]: 106.6 meq/L; DBIL [4]: 0.024 mg/dL; GLC [4]: 185.6 mg/dL; IP [4]: 6.6 mg/dL; K [4]: 4.9 meq/L; LDH [4]: 105.6 IU/L; Na [4]: 140.4 meq/L; PL [4]: 148 mg/dL; RALB [4]: 3.9 g/dL; TBIL [4]: 0.3 mg/dL; TC [4]: 81.6 mg/dL; TG [4]: 110.6 mg/dL; TP [4]: 5.4 g/dL; gamma-GTP [4]: 1.8 IU/L; TERMINAL_BW [5]: 200.7 g; APTT [5]: 21.2 s; Bas [5]: 0%; Eos [5]: 1.4%; Fbg [5]: 206.8 mg/dL; Hb [5]: 13 g/dL; Ht [5]: 38.1%; Lym [5]: 69.4%; MCHC [5]: 34.1%; MCV [5]: 65.4 fL; Mono [5]: 6%; Neu [5]: 23.6%; PT [5]: 12.4 s; Plat [5]: 109.9 x10_4/uL; RBC [5]: 582.6 x10_4/ul; Ret [5]: 11.4%; WBC [5]: 70.5 x10_2/uL; KIDNEY_L [5]: 0.9 g; KIDNEY_R [5]: 0.9 g; KIDNEY_TOTAL [5]: 1.8 g; LIVER [5]: 8.9 g; ALP [5]: 841.8 IU/L; ALT [5]: 35.8 IU/L; AST [5]: 62.8 IU/L; BUN [5]: 21.4 mg/dL; CRE [5]: 0.6 mg/dL; Ca [5]: 10.7 mg/dL; Cl [5]: 102.8 meq/L; DBIL [5]: 0.046 mg/dL; GLC [5]: 313.4 mg/dL; IP [5]: 9.9 mg/dL; K [5]: 4.9 meq/L; LDH [5]: 88.4 IU/L; Na [5]: 138 meq/L; PL [5]: 137.4 mg/dL; RALB [5]: 3.8 g/dL; TBIL [5]: 0.4 mg/dL; TC [5]: 81.2 mg/dL; TG [5]: 49.6 mg/dL; TP [5]: 5.1 g/dL; gamma-GTP [5]: 1 IU/L; TERMINAL_BW [6]: 196.2 g; APTT [6]: 19.9 s; Bas [6]: 0%; Eos [6]: 0.8%; Fbg [6]: 207.8 mg/dL; Hb [6]: 13 g/dL; Ht [6]: 39%; Lym [6]: 68.4%; MCHC [6]: 33.2%; MCV [6]: 64.4 fL; Mono [6]: 2.6%; Neu [6]: 28.6%; PT [6]: 12.5 s; Plat [6]: 110.2 x10_4/uL; RBC [6]: 605.8 x10_4/ul; Ret [6]: 9.2%; WBC [6]: 44 x10_2/uL; KIDNEY_L [6]: 0.8 g; KIDNEY_R [6]: 0.9 g; KIDNEY_TOTAL [6]: 1.7 g; LIVER [6]: 8.1 g; ALP [6]: 978 IU/L; ALT [6]: 30.6 IU/L; AST [6]: 61.6 IU/L; BUN [6]: 19.4 mg/dL; CRE [6]: 0.7 mg/dL; Ca [6]: 10.4 mg/dL; Cl [6]: 101.6 meq/L; DBIL [6]: 0.028 mg/dL; GLC [6]: 360 mg/dL; IP [6]: 10.7 mg/dL; K [6]: 4.5 meq/L; LDH [6]: 83.4 IU/L; Na [6]: 135.4 meq/L; PL [6]: 135 mg/dL; RALB [6]: 3.8 g/dL; TBIL [6]: 0.4 mg/dL; TC [6]: 80.4 mg/dL; TG [6]: 27 mg/dL; TP [6]: 5.3 g/dL; gamma-GTP [6]: 1 IU/L; TERMINAL_BW [7]: 192.8 g; APTT [7]: 19 s; Bas [7]: 0%; Eos [7]: 0%; Fbg [7]: 208.8 mg/dL; Hb [7]: 13.2 g/dL; Ht [7]: 39.2%; Lym [7]: 74.5%; MCHC [7]: 33.8%; MCV [7]: 65 fL; Mono [7]: 4.5%; Neu [7]: 20.8%; PT [7]: 12.8 s; Plat [7]: 108.6 x10_4/uL; RBC [7]: 603.2 x10_4/ul; Ret [7]: 10.1%; WBC [7]: 54.5 x10_2/uL; KIDNEY_L [7]: 0.8 g; KIDNEY_R [7]: 0.9 g; KIDNEY_TOTAL [7]: 1.7 g; LIVER [7]: 7.3 g; ALP [7]: 850.5 IU/L; ALT [7]: 26.8 IU/L; AST [7]: 59.8 IU/L; BUN [7]: 17.8 mg/dL; CRE [7]: 0.7 mg/dL; Ca [7]: 10.4 mg/dL; Cl [7]: 102.2 meq/L; DBIL [7]: 0.0125 mg/dL; GLC [7]: 323.5 mg/dL; IP [7]: 9.2 mg/dL; K [7]: 4.8 meq/L; LDH [7]: 121.2 IU/L; Na [7]: 133.5 meq/L; PL [7]: 128.2 mg/dL; RALB [7]: 4 g/dL; TBIL [7]: 0.4 mg/dL; TC [7]: 76.5 mg/dL; TG [7]: 14.2 mg/dL; TP [7]: 5.3 g/dL; gamma-GTP [7]: 1.8 IU/L; TERMINAL_BW [8]: 182.2 g; APTT [8]: 18.9 s; Bas [8]: 0%; Eos [8]: 1%; Fbg [8]: 187 mg/dL; Hb [8]: 13.7 g/dL; Ht [8]: 40.7%; Lym [8]: 61.2%; MCHC [8]: 33.7%; MCV [8]: 63.7 fL; Mono [8]: 9.8%; Neu [8]: 28.2%; PT [8]: 12.7 s; Plat [8]: 126.6 x10_4/uL; RBC [8]: 639.4 x10_4/ul; Ret [8]: 9.5%; WBC [8]: 117.8 x10_2/uL; KIDNEY_L [8]: 0.9 g; KIDNEY_R [8]: 0.9 g; KIDNEY_TOTAL [8]: 1.9 g; LIVER [8]: 8.1 g; ALP [8]: 783.2 IU/L; ALT [8]: 27.2 IU/L; AST [8]: 64.8 IU/L; BUN [8]: 22.8 mg/dL; CRE [8]: 0.8 mg/dL; Ca [8]: 9.9 mg/dL; Cl [8]: 108 meq/L; DBIL [8]: 0.032 mg/dL; GLC [8]: 209 mg/dL; IP [8]: 7.3 mg/dL; K [8]: 4.6 meq/L; LDH [8]: 99.6 IU/L; Na [8]: 139.6 meq/L; PL [8]: 110.4 mg/dL; RALB [8]: 3.9 g/dL; TBIL [8]: 0.4 mg/dL; TC [8]: 55.4 mg/dL; TG [8]: 41.2 mg/dL; TP [8]: 5.2 g/dL; gamma-GTP [8]: 1.8 IU/L
